Experimental data from PMC6627374, “Effects of the Pentapeptide P33 on Memory and Synaptic Plasticity in APP/PS1 Transgenic Mice: A Novel Mechanism Presenting the Protein Fe65 as a Target” (International Journal of Molecular Sciences, 2019).
Where a SMILES comes first, the peptide text is derived from it.

Columns and labels:
GFAP-positive astrocytes = experiment: GFAP immunohistochemistry, astrocyte density; assay type: in vivo, mouse; conditions: APP/PS1-vehicle vs. WT-vehicle, WT-P33, APP/PS1-P33; whole HC and CTX; 5 mg∙kg^−1 i.p., six months
Method: (§1) For this study, three-month-old male and female WT and APP/PS1 mice (n = 37) were used. Four groups were defined: WT-vehicle (physiological saline) (male n = 4; female n = 6), WT-P33 (male n = 6; female n = 5), APP/PS1-vehicle (male n = 3; female n = 5), and APP/PS1-P33 (male n = 6; female n = 2). Animals were subjected to intraperitoneal (i.p.) injections of P33 (5 mg∙kg^−1) for five days per week, over a course of six months. The mice were kept in groups under constant temperature (23 ± 0.5 °C), lighting (12-h/12-h light/dark cycle, lights on at 7:00 a.m.), and humidity (~50%). Standard mouse chow and tap water were supplied ad libitum. All behavioral experiments were performed in the light period. Handling was done daily at the same time.
(§2) Mice (five animals per group) were anaesthetized with chloral-hydrate (1 mg∙kg^−1) and perfused transcardially with PBS, followed by ice-cold 4% paraformaldehyde. The brains were removed, post-fixed in the same fixative, and immersed in a 30% sucrose solution containing 0.01% sodium-azide. […]
(§3) Slides were scanned by a digital slide scanner (Mirax Midi, 3DHistech Ltd., Budapest, Hungary), equipped with a Pannoramic Viewer 1.15.4, CaseViewer 2.1 program and a QuantCenter, HistoQuant module (3DHistech Ltd., Budapest, Hungary). For quantification, all of the sections were analyzed. […] Antibody-positive cell types from the ROIs were counted and quantified. […]

Aβ plaques = experiment: 4G8 immunohistochemistry, Aβ plaque density; assay type: in vivo, mouse; conditions: HC and CTX; 5 mg∙kg^−1 i.p., six months; five animals per group
Method: as §1, §2, §3

With C[C@@H](N)C(=O)N1CCC[C@@H]1C(=O)N[C@H](C)C(=O)N1CCC[C@@H]1C(=O)N[C@H](CCC(=O)O)C(N)=O [P33] (HELM PEPTIDE1{[dA].[dP].[dA].[dP].[dE].[am]}$$$$V2.0) the “density of hyperreactive (GFAP-positive) astrocytes (in words)” value (GFAP-positive astrocytes) was “higher in the whole HC and CTX of the APP/PS1-vehicle group, than in the other three groups” and the “Aβ plaque density, effect of P33 (in words)” value (Aβ plaques) was “significantly decreased the plaque density in APP/PS1-P33 mice”.
